Assay results: patent US7115566B2, “Compounds and method for the prevention and treatment of diabetic retinopathy” (University of Florida, priority 1997, dated 2006)

Tests used:
cytomegalovirus (CMV) = settings: cited from earlier work
[1] = test system: retinal neovascularization; test: intravitreal IGF-1 rabbit model of retinal angiogenesis; type: in vivo, pigmented rabbits; settings: for ophthalmoscopy findings: all rabbits
Protocol: Pigmented rabbits were selected for study after considering the ocular anatomy, animal supply and established use of the species in ophthalmology. Growth factor was injected into the vitreous of pigmented rabbits (n=30) as previously described. Briefly, rabbits were anesthetized with ketamine and xylazine and a 30 g needle was used to withdraw 80 μl of fluid from the anterior eye chamber under an operating microscope. Then a 30 g needle was used to administer 0.1 ml of balanced salt solution containing 600 μg of IGF-1 adjacent to the surface of the retina near the optic nerve head. The rabbits were placed in a supine position for 30–60 minutes to facilitate solution dispersal onto the vascularized medullary ray and disc. Control animals (n=10) received the same dose of heat-inactivated protein (IGF-I held at 100° C. for 30 min). Animals were periodically examined using indirect ophthalmoscopy, fundus photography, and fluorescein angiography from days 2 through 21.
The temporal sequence of the anatomical changes seen in the IGF 1-injected eyes is as follows. […] The fundus of control eyes remained normal in appearance. […] Numerous distended vessels with edematous endothelial cells were found on the surface of the retina along with extensive proliferation of their extracellular matrix. […] Reduplication of the basement membrane, a strong indicator of endothelial cell hyperreactivity, was a consistent finding in all IGF-1 treated eyes. Endothelial cell mitosis was validated using antibody to proliferating cell nuclear antigen. Systemic unpackaged peptide, e.g. lanreotide can be tested for its ability to inhibit IGF-1 induced neovascularization in this rabbit model.

[2] = continuous infusion pump for 4 weeks, cited from earlier work
insulin secretion = settings: normal physiological conditions; cited from earlier work
[3] = in vivo; cited from earlier work
[4] = after a similar dose (200 μg/kg); cited from earlier work
[5] = test system: chorioallantoic membrane of the developing chick embryo; settings: chick chorioallantoic membrane assay; cited from earlier work
[6] = compared with octreotide; cited from earlier work
[7] = octreotide in patients with severe proliferative diabetic retinopathy (Grant, 1987–1994)
[8] = test system: human retinal endothelial cells (HREC); test: proliferation and [3H] thymidine incorporation in growth factor stimulated HREC; type: cell-based
[9] = pilot study of continuous octreotide infusion to prevent progression of diabetic retinopathy; type: in vivo, human
[10] = several months of continuous infusion; 4 patients; cited from earlier work
[11] = six patients, 25 to 100 μg three times a day

For Nc1nc(O)c2ncn(COC(CO)CO)c2n1 [ganciclovir], the CMV-encephalitis (cytomegalovirus (CMV); at autopsy) is listed as “widespread CMV-encephalitis” and the “treatment of CMV retinitis” value (cytomegalovirus (CMV); verified at autopsy) is listed as “successful treatment of CMV retinitis”.

In the case of “IGF-1: insulin-like growth factor 1, injected intravitreally to induce retinal neovascularization”, the ophthalmoscopy findings ([1]; 3 days after intravitreal injection of 600 μg) is reported as “hyperemia with vascular engorgement”, the “microscopic findings on the surface of the retina” value ([1]; all eyes treated) is reported as “abnormal vessels were observed on the surface of the retina” and the ophthalmoscopy findings ([1]; by day 7) is reported as “Vascular tortuosity, intraretinal hemorrhage, and severe increased hyperemia surrounding the optic disc”. For the same compound, the ophthalmoscopy findings ([1]; by day 21) was “Fibrosis developed over the optic disc and medullary ray”.

In the case of lanreotide, the disease regressed [2] is listed as 2 patients, the disease progression halted ([2]; subjects who completed dosing) is listed as 8 of 8 and the “effect on insulin secretion” value (insulin secretion) is listed as “suppress insulin secretion”. The excreted intact [3] was > 90%, the “stability of the peptide” value [3] was “stable” and the “LNT levels in rat eyes” value [4] was “unable to detect significant LNT levels”. The inhibition of angiogenesis [5] was “more potent in inhibiting angiogenesis compared to the natural somatostatin tetradecapeptide” and the clinical tolerance [6] was “better tolerated than octreotide”.

In the case of octreotide, the HgA1c ([7]; all seven study patients) is reported as “reductions”, the sense of well-being ([7]; all seven study patients) is reported as “improved” and the visual acuity ([7]; all seven study patients) is reported as “improved”. For the same compound, the posterior pole neovascularization ([7]; seventh patient) was “not affected”, the “side effects leading to stopping the drug” value ([7]; seventh patient) was “gastrointestinal side effects” and the iris neovascularization ([7]; seventh patient with severe bilateral neovascular glaucoma) was “regressed completely”. For the same compound, the “disease progression during treatment period” value [7, 11] was “None of the six patients showed disease progression”, the “regression of NVD” value [7, 11] was “four” and the “[3H] thymidine incorporation” value ([8]; IGF-1 and b-FGF stimulated HREC) was “dose-dependent inhibition”. For the same compound, the “proliferation of HREC” value ([8]; IGF-1 stimulated cultures) was “significantly decreased”, the “inhibitory effect on proliferation of HREC” value ([8]; b-FGF stimulated cultures) was 40–45% and the cell proliferation ([8]; cells grown in control medium) was “minimal effect”. The HgA1c ([9]; four octreotide-treated subjects, within the first 6 months of therapy) was “normalized”, the “suppression of GH and IGF-1 levels into the hypopituitary range” value ([9]; four patients) was “not achieved in any patient” and the “clinical or angiographic improvement” value ([9]; four patients, continuous infusion, doses up to 5000 μg/day) was “no patient showed clear clinical or angiographic improvement”. For the same compound, the “progression to high risk characteristics requiring laser therapy” value ([9]; four patients, in at least one eye) was “Laser therapy was initiated in all four patients”, the visual acuity ([9]; patients receiving octreotide) was “statistically significant improvement” and the retinal function [10] was “improved”.
